Data from PubChem BioAssay (NCI).
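In this assay, cells in 96-well plates receive the compound at five concentrations for 48 hours. Endpoints are linearly interpolated between the surrounding concentrations. TGI denotes the concentration required for complete inhibition of growth.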 Where a SMILES comes first, the peptide text is derived from it. The star is where a group is joined. Boc = CC(C)(C)OC(=O)*

Experiments:
Experiment in all cases: growth of human tumour cells (NCI), 48 h
MCF7 breast = tested on: MCF7 breast
TK-10 renal = tested on: TK-10 renal
HL-60(TB) leukemia = tested on: HL-60(TB) leukemia
SW-620 colon = tested on: SW-620 colon
M14 melanoma = tested on: M14 melanoma
CAKI-1 renal = tested on: CAKI-1 renal
NCI-H522 lung = tested on: NCI-H522 lung
A549 NSCLC = tested on: A549 NSCLC
RPMI-8226 leukemia = tested on: RPMI-8226 leukemia
CCRF-CEM leukemia = tested on: CCRF-CEM leukemia
SK-OV-3 ovarian = tested on: SK-OV-3 ovarian
EKVX NSCLC = tested on: EKVX NSCLC
U251 CNS = tested on: U251 CNS
HOP-92 NSCLC = tested on: HOP-92 NSCLC
OVCAR-5 ovarian = tested on: OVCAR-5 ovarian
ACHN renal = tested on: ACHN renal
NCI-H23 lung = tested on: NCI-H23 lung
OVCAR-4 ovarian = tested on: OVCAR-4 ovarian
SK-MEL-28 melanoma = tested on: SK-MEL-28 melanoma
LOX IMVI melanoma = tested on: LOX IMVI melanoma

Structure (SMILES)	TGI (MCF7 breast)	TGI (TK-10 renal)	TGI (HL-60(TB) leukemia)	TGI (SW-620 colon)	TGI (M14 melanoma)	TGI (CAKI-1 renal)	TGI (NCI-H522 lung)	TGI (A549 NSCLC)	TGI (RPMI-8226 leukemia)	TGI (CCRF-CEM leukemia)	TGI (SK-OV-3 ovarian)	TGI (EKVX NSCLC)	TGI (U251 CNS)	TGI (HOP-92 NSCLC)	TGI (OVCAR-5 ovarian)	TGI (ACHN renal)	TGI (NCI-H23 lung)	TGI (OVCAR-4 ovarian)	TGI (SK-MEL-28 melanoma)	TGI (LOX IMVI melanoma)
Cc1cc(N(C)C)ccc1N=Nc1ccc2ncccc2c1	> 100 µM	76.2 µM	> 100 µM	> 100 µM	> 100 µM	> 100 µM	62.8 µM	> 100 µM	> 100 µM	> 100 µM	> 100 µM	> 100 µM	> 100 µM	> 100 µM	> 100 µM	> 100 µM	> 100 µM			
CO[C@@H]1C[C@H]2[C@@H]3CC[C@H]([C@@H](C)COC(C)=O)[C@@]3(C)CC[C@@H]2[C@@]2(C)CC[C@H]3C[C@]312	23.6 µM		19.1 µM	27.3 µM	38 µM	21.4 µM	33.2 µM	37.3 µM	29.9 µM	40.7 µM		28 µM	25.8 µM	35.2 µM	23.6 µM	30.2 µM	25.4 µM	44.8 µM	31.9 µM	23.6 µM
Cc1ccc(S(=O)(=O)NN=C2C(C)CC(C(C)(C)C)CC2C)cc1 (configuration not stated)	38.6 µM	65 µM	52.7 µM	40.6 µM	26.9 µM	31.6 µM	50.2 µM	32.7 µM	52.8 µM	41.8 µM	51.7 µM		31.5 µM	30.1 µM	31.5 µM		56.5 µM	29.1 µM	36.6 µM	33.2 µM
CC(C)C1=CC23CCC4C(C)(C(=O)O)CCCC4(C)C2CC1C1C(=O)N(c2ccc(N4C(=O)C5C6CC7C8(C)CCCC(C)(C(=O)O)C8CCC7(C=C6C(C)C)C5C4=O)cc2)C(=O)C13 (configuration not stated)	13.5 µM	29.9 µM	17.2 µM	21.6 µM	15.8 µM		17 µM	43.3 µM	80.3 µM	19.4 µM		18.7 µM	14.4 µM	28.5 µM	22 µM	18.4 µM	11.9 µM	25.1 µM	16.7 µM	
Cc1c(/C=N/NC(=S)Nc2ccc([N+](=O)[O-])cc2)c(=O)n(-c2ccccc2)n1C	50 µM	26.3 µM	> 100 µM	> 100 µM	28.6 µM	18.9 µM			> 100 µM	> 100 µM	26.3 µM	24.5 µM	30.9 µM	25.5 µM		23.6 µM	32.6 µM	34.7 µM	> 100 µM	33.3 µM
COc1ccc(-c2c(C(C)=O)c(C)n(C3OC(COC(C)=O)C(OC(C)=O)C(OC(C)=O)C3OC(C)=O)c(=S)c2C#N)cc1 (configuration not stated)	> 100 µM	> 100 µM	> 100 µM	> 100 µM	> 100 µM	> 100 µM	> 100 µM	> 100 µM		> 100 µM	> 100 µM		> 100 µM	84.6 µM	> 100 µM	> 100 µM	> 100 µM	> 100 µM	> 100 µM	> 100 µM
Cc1ccc([N+](=O)[O-])cc1S(=O)(=O)Nc1ccc(C(=O)/C=C/c2ccccc2)cc1	26.8 µM	> 100 µM	65.1 µM	59.4 µM	43.1 µM	55.4 µM	53 µM	> 100 µM	37.1 µM	69.9 µM	95 µM	33.5 µM		41.1 µM	54.7 µM	28 µM	34.7 µM	5.51 µM	49.6 µM	36.7 µM
CCN(CC)CCC1CCCCN1CC(=O)N1c2ccccc2NC(=O)CC1C (configuration not stated)	> 100 µM	> 100 µM	> 100 µM		> 100 µM	> 100 µM	> 100 µM	> 100 µM	> 100 µM	> 100 µM	> 100 µM	> 100 µM	> 100 µM	> 100 µM	> 100 µM	> 100 µM	> 100 µM	> 100 µM	> 100 µM	> 100 µM
O=C(CC(O)(C(F)(F)Cl)C(F)(F)Cl)CC(O)(C(F)(F)Cl)C(F)(F)Cl	> 10 µM	> 10 µM	4.94 µM	> 10 µM	> 10 µM	6.62 µM	> 10 µM	> 10 µM	4.84 µM	> 10 µM	5.89 µM	8.02 µM	7.39 µM	3.04 µM		> 10 µM	4.29 µM	9.67 µM	> 10 µM	> 10 µM
CCCCCCCCOP(=O)(O)OP(=O)(O)OCC1OC(n2ccc(N)nc2=O)C(O)C1O (configuration not stated)	> 100 µM	> 100 µM	> 100 µM	> 100 µM	> 100 µM	> 100 µM		> 100 µM	> 100 µM	> 100 µM	> 100 µM	> 100 µM	> 100 µM	> 100 µM	> 100 µM	> 100 µM	> 100 µM	> 100 µM	> 100 µM	> 100 µM
CNC(=O)CNC(=O)C(NC(=O)CNC(=O)C1CCCN1C(=O)C(C)NC(=O)C(NC(=O)OC(C)(C)C)C(C)C)C(C)C (configuration not stated) (Boc-VAPGVG-NHMe; configuration not given here)	> 100 µM	> 100 µM	> 100 µM	> 100 µM	> 100 µM	> 100 µM	> 100 µM		> 100 µM	> 100 µM	> 100 µM	> 100 µM	> 100 µM	> 100 µM	> 100 µM	> 100 µM	> 100 µM	> 100 µM	> 100 µM	> 100 µM
O=C(OC1C#CCSCC#C/C=C\1)c1cnc2ccccc2n1 (configuration not stated)	> 100 µM	> 100 µM	> 100 µM	> 100 µM	> 100 µM		> 100 µM			> 100 µM	> 100 µM	> 100 µM	> 100 µM	> 100 µM	> 100 µM	> 100 µM	> 100 µM	> 100 µM	> 100 µM	> 100 µM
